Experimental data taken from ChEMBL document CHEMBL5303304, “EUbOPEN Chemogenomics Library - IncuCyte” (2023).

Assays:
Format in all cases: toxicity, cell-based
HEK-293T = assay: Incucyte cell viability with HEK293T; conditions: human, 10 µM, compound concentration 10 uM
U2OS = assay: Incucyte cell viability with U2OS; conditions: human, 10 µM, compound concentration 10 uM
Fibroblast = assay: Incucyte cell viability with human fibroblast; conditions: 10 µM, compound concentration 10 uM
Note: unitless GR value; below 1 slowed growth and below 0 cell loss.

| Compound | Growth Rate (HEK-293T; 0 h, replicate number 1) | Growth Rate (HEK-293T; 6 h, replicate number 2) | Growth Rate (U2OS; 6 h, replicate number 1) | Growth Rate (U2OS; 12 h, replicate number 1) | Growth Rate (U2OS; 18 h, replicate number 1) | Growth Rate (U2OS; 24 h, replicate number 1) | Growth Rate (U2OS; 24 h, replicate number 2) | Growth Rate (Fibroblast; 0 h, replicate number 1) | Growth Rate (Fibroblast; 18 h, replicate number 2) | Growth Rate (Fibroblast; 24 h, replicate number 1) | Growth Rate (U2OS; 0 h, replicate number 1) | Growth Rate (U2OS; 0 h, replicate number 2) | Growth Rate (Fibroblast; 0 h, replicate number 2) | Growth Rate (Fibroblast; 18 h, replicate number 1) | Growth Rate (Fibroblast; 24 h, replicate number 2) | Growth Rate (HEK-293T; 12 h, replicate number 2) | Growth Rate (HEK-293T; 24 h, replicate number 2) | Growth Rate (U2OS; 18 h, replicate number 2) | Growth Rate (Fibroblast; 6 h, replicate number 1) | Growth Rate (Fibroblast; 12 h, replicate number 2) | further results |
| --- | --- | --- | --- | --- | --- | --- | --- | --- | --- | --- | --- | --- | --- | --- | --- | --- | --- | --- | --- | --- | --- |
| CC(C)[C@@H]1CC[C@@H](C)C[C@@H]1P(=O)(c1ccccc1)c1ccccc1 | 0.49 | 0.56 | 0.44 | 0.44 | 0.78 | 0.74 | 1 | 0.25 | 0.92 | 0.9 | – | – | – | – | – | – | – | – | – | – | Growth Rate (U2OS; 12 h, replicate number 2): 0.96 |
| COc1ccc(CC(=O)NCc2ccccc2-c2ccccc2C(=O)NCc2ccc(F)cc2F)cc1 | 0.52 | – | – | – | – | 0.89 | – | – | 0.88 | – | -0.79 | -0.96 | -0.36 | 0.19 | 0.91 | – | – | – | – | – | – |
| O=c1cc(-c2cc(F)c(Cl)nc2Cl)[nH]c2c(-c3ccccc3)c(C(F)(F)F)nn12 | 0.89 | 0.52 | 0.78 | – | – | – | – | -0.22 | – | 0.39 | – | – | – | 0.57 | 1 | 0.74 | 0.94 | -0.41 | – | – | Growth Rate (HEK-293T; 18 h, replicate number 1): 0.93; Growth Rate (HEK-293T; 18 h, replicate number 2): 0.98; Growth Rate (HEK-293T; 24 h, replicate number 1): 0.8; Growth Rate (Fibroblast; 12 h, replicate number 1): -0.36 |
| Cn1c(SCc2ccc(C(C)(C)C)cc2)nc(N)cc1=O | 0.71 | -0.24 | 0.7 | 0.86 | 0.62 | 0.78 | 0.68 | 0.97 | – | – | – | -0.65 | -1 | – | – | 0.05 | 0.23 | 0.71 | -0.69 | – | Growth Rate (HEK-293T; 6 h, replicate number 1): -0.1; Growth Rate (HEK-293T; 12 h, replicate number 1): -0.03; Growth Rate (HEK-293T; 18 h, replicate number 1): 0.15; Growth Rate (HEK-293T; 18 h, replicate number 2): 0.19; Growth Rate (HEK-293T; 24 h, replicate number 1): 0.2; Growth Rate (U2OS; 12 h, replicate number 2): 0.66 |
| O=S1(=O)NCN(C2CC2)c2ccc(F)cc21 | 0.98 | 0.62 | 0.68 | – | 0.99 | 0.9 | 0.93 | 0.5 | – | 0.6 | 0.05 | – | 0.39 | -0.11 | 0.91 | – | – | 0.88 | – | – | Growth Rate (HEK-293T; 0 h, replicate number 2): 0.78; Growth Rate (U2OS; 6 h, replicate number 2): 0.82 |
| O=C(O)c1ccc(S(=O)(=O)N(Cc2ccc(OC(F)(F)F)cc2)c2ncc(C(F)(F)F)cc2Cl)cc1 | 0.66 | 0.33 | – | – | – | – | 0.85 | 0.4 | – | 0.93 | – | – | -0.5 | 0.16 | – | 0.79 | 0.93 | 0.93 | 0.15 | – | Growth Rate (HEK-293T; 18 h, replicate number 2): 0.81; Growth Rate (U2OS; 6 h, replicate number 2): 0.99; Growth Rate (U2OS; 12 h, replicate number 2): 0.75 |
| Nc1nc2cc(-c3cc(Cl)ccc3Oc3cc(F)c(S(=O)(=O)Nc4ncns4)cc3F)ccc2[nH]1 | 0.66 | – | 0.51 | 0.84 | 0.76 | 0.89 | – | – | – | 0.45 | -0.72 | 0.2 | -0.38 | – | 0.9 | – | – | – | -0.93 | – | Growth Rate (HEK-293T; 0 h, replicate number 2): 0.52 |
| FC(F)(F)Oc1ccc(-c2ccc3nnc(C(F)(F)F)n3c2)cc1 | 0.83 | – | 0.08 | 0.82 | 0.74 | 0.91 | 0.96 | – | 0.75 | – | – | – | – | 0.42 | 0.91 | – | – | 0.92 | -0.05 | 0.76 | Growth Rate (HEK-293T; 0 h, replicate number 2): 0.64; Growth Rate (HEK-293T; 6 h, replicate number 1): 0.53; Growth Rate (HEK-293T; 18 h, replicate number 1): 1; Growth Rate (U2OS; 6 h, replicate number 2): 0.81; Growth Rate (U2OS; 12 h, replicate number 2): 0.64; Growth Rate (Fibroblast; 6 h, replicate number 2): -1; Growth Rate (Fibroblast; 12 h, replicate number 1): -1 |
| COc1cc(Nc2ccc([N+](=O)[O-])cc2C(=O)O)cc2ccccc12 | 0.41 | – | – | – | – | 0.98 | – | – | 0.45 | 0.68 | 0.77 | -0.1 | – | -0.31 | 0.63 | – | – | – | – | 0.4 | Growth Rate (HEK-293T; 0 h, replicate number 2): 0.13; Growth Rate (Fibroblast; 6 h, replicate number 2): -0.6 |
| O=c1ccc2c(OCCCCOc3ccccc3)c3ccoc3cc2o1 | 0.49 | – | 0.73 | – | 0.99 | 0.92 | – | – | – | 0.92 | 0.26 | – | – | – | – | – | – | – | – | 0.95 | Growth Rate (HEK-293T; 0 h, replicate number 2): 0.37; Growth Rate (U2OS; 6 h, replicate number 2): 0.99 |
| CC(C)C[C@H](NC(=O)c1cc2ccccc2s1)C(=O)N1CCN(C(=O)[C@H](CO)NS(=O)(=O)c2ccc(Cl)cc2Cl)CC1 | 0.99 | -0.01 | 0.27 | 0.93 | 0.95 | – | 0.66 | – | 0.68 | 0 | – | -1 | – | -0.18 | 0.65 | 0.27 | 0.46 | 0.58 | – | 0.01 | Growth Rate (HEK-293T; 6 h, replicate number 1): -0.15; Growth Rate (HEK-293T; 12 h, replicate number 1): 0.69; Growth Rate (HEK-293T; 18 h, replicate number 1): 0.71; Growth Rate (HEK-293T; 18 h, replicate number 2): 0.38; Growth Rate (HEK-293T; 24 h, replicate number 1): 0.78; Growth Rate (U2OS; 6 h, replicate number 2): 0.36; Growth Rate (U2OS; 12 h, replicate number 2): 0.51; Growth Rate (Fibroblast; 6 h, replicate number 2): -0.86; Growth Rate (Fibroblast; 12 h, replicate number 1): -0.95 |
| CN1C2CCCC1CC(Nc1ccccc1Br)C2 (centres undefined) | 0.87 | 0.99 | – | – | – | – | – | 0.86 | 0.95 | – | – | -0.9 | 0.67 | – | 0.92 | – | 0.99 | – | -0.98 | 0.88 | Growth Rate (Fibroblast; 6 h, replicate number 2): -0.45; Growth Rate (Fibroblast; 12 h, replicate number 1): 0.42 |
| COc1ccc(-n2nc3c4ccccc4[nH]cc-3c2=O)cc1 | 0.6 | 0.53 | 0.7 | 0.89 | – | – | – | – | 0.91 | – | -0.37 | -0.98 | 0.74 | – | – | 1 | – | – | -0.1 | 0.81 | – |
| CCOC(=O)c1ncn2c1[C@@H]1CCCN1C(=O)c1cc(OC)ccc1-2 | 0.49 | – | 0.4 | 0.92 | 0.9 | 0.81 | – | 0.48 | – | 0.63 | -0.46 | -0.82 | -0.85 | 0.09 | – | 0.89 | 0.95 | – | 0.02 | – | Growth Rate (HEK-293T; 0 h, replicate number 2): 1; Growth Rate (HEK-293T; 18 h, replicate number 1): 0.83; Growth Rate (HEK-293T; 24 h, replicate number 1): 0.82; Growth Rate (Fibroblast; 6 h, replicate number 2): 0.2 |
| Cc1cccc([C@H]2CC[C@@H](N3CCN(c4cccnc4)CC3)CC2)c1.O=C(O)C(F)(F)F.O=C(O)C(F)(F)F | 0.98 | 0.45 | – | 1 | 0.97 | 0.93 | – | – | – | 0.58 | – | -0.63 | -0.88 | – | 0.94 | 0.66 | 0.79 | – | -0.37 | – | Growth Rate (HEK-293T; 18 h, replicate number 2): 0.73; Growth Rate (Fibroblast; 6 h, replicate number 2): -0.32 |
| Cl.Clc1ccc(OC[C@H]2CCN2)cn1 | 0.45 | 0.93 | -0.1 | 0.58 | 0.72 | 0.76 | 0.97 | – | 0.83 | – | -0.28 | – | – | – | – | 0.94 | – | 0.97 | -0.66 | 0.34 | Growth Rate (HEK-293T; 6 h, replicate number 1): 0.64; Growth Rate (HEK-293T; 18 h, replicate number 1): 0.8; Growth Rate (HEK-293T; 24 h, replicate number 1): 0.83; Growth Rate (U2OS; 6 h, replicate number 2): 0.54; Growth Rate (Fibroblast; 6 h, replicate number 2): -0.05 |
| Cl.c1ccc2c(c1)CCC[C@H]2Nc1nc2ccccc2[nH]1 | 0.86 | – | – | – | 0.9 | 0.98 | – | 0.94 | 0.87 | 0.48 | 0.01 | – | 0.4 | 0.44 | – | – | – | 0.95 | – | 0.56 | Growth Rate (HEK-293T; 0 h, replicate number 2): 0.46; Growth Rate (HEK-293T; 6 h, replicate number 1): 0.77; Growth Rate (U2OS; 6 h, replicate number 2): 0.97 |
